Reference: paper PMC12661054, “The CIP2A-TOPBP1 axis facilitates mitotic DNA repair via MiDAS and MMEJ” (Nature Communications, 2025)

Columns and labels:
[1] = system: HCT116-TOPBP1-mAID-Clover cells; assay: TOPBP1 degron assay, HCT116-TOPBP1-mAID-Clover cells; type: cell-based, human
Procedure: Immunofluorescence microscopy
(§1) For detection of EdU incorporation in mitosis and the analysis of recruitment of TOPBP1, CIP2A, MUS81, ERCC1, TOPBP1-mAID-Clover, eGFP tagged SLX4 and eGFP tagged Polθ in RPE1 p53^-/- FRT/TR and DLD1 BRCA2^-/-cells, respectively, cells were grown on 13 mm 1.5 thickness coverslips and treated as described. Subsequently cells were simultaneously fixed and permeabilised in PTEMF buffer (20 mM PIPES pH 6.8, 10 mM EGTA, 0.2% Triton X-100, 1 mM MgCl2 and 4% formaldehyde) for 10 minutes at room temperature. For detection of micronuclei, cells were fixed in 250 mM HEPES pH 7.5, 0.1% Triton X-100, 4% PFA in PBS for 20 minutes at 4 °C.
(§2) Quantification was carried out using FIJI (ImageJ, RRID:SCR_003070) software, CellProfiler (Broad Institute), Harmony (Revvity) or using Aivia (Leica Microsystems). Images of mitotic cells were analysed in 3D with maximum Z projections used for representative images in the manuscript to assist with visualisation.For interphase cells 2D images were analysed.

[2] = system: RPE1 p53-/- FRT/TR cells; assay: Micronuclei formation, RPE1 p53-/- FRT/TR cells; type: cell-based, human; conditions: 5 µM ART558, 18 h, with 400 nM aphidicolin, three independent experiments
Procedure: as §1
Coverslips were then incubated for 5 min in 1x PBS with three buffer changes followed by incubation with 0.5% Triton X-100/ PBS for 10 min at room temperature. Coverslips were then incubated for 5 minutes in 1x PBS with three buffer changes. […]
as §2

[3] = system: DLD1 BRCA2-/- cells; assay: Proliferation (Incucyte), DLD1 BRCA2-/- cells; type: cell-based, human; conditions: 5 µM ART558 + siSLX4, compared to siCIP2A; three independent experiments
Procedure: For proliferation analysis of DLD1 BRCA2^-/- cells after treatment with siRNA as indicated, 72 h post-transfection of the first pulse of siRNA, 1500 cells were seeded per well in a PhenoPlate 96-well optically clear tissue culture plate (Revvity, 6055302). […] The following day the media was aspirated and replaced with 200 µl of RPMI 1640 medium containing standard antibiotics, 10% FBS and 2 mM L-glutatmine.
To analyse cellular proliferation of DLD1 BRCA2^-/- or SUM149PT BRCA1^-/-cells expressing a minimal SLX4 T1260 containing fragment, 1500 cells were seeded per well in a PhenoPlate 96-well optically clear tissue culture plate (Revvity, 6055302). […] The following day the medium was aspirated and replaced with 200 µl of RPMI 1640 medium containing standard antibiotics, 10% FBS and 2 mM L-glutatmine (DLD1 BRCA2^-/- SLX4 T1260 fragment cells or empty vector control expressing) or S Ham’s F-12 medium supplemented with 5% FBS, 10 μg/mL insulin, 0.5 μg/mL hydrocortisone and penicillin/streptomycin antibiotics for SUM149PT BRCA1^-/- (SLX4 T1260 fragment or empty vector control expressing) containing 1 µg/ml doxycycline.

[4] = system: RPE1 p53-/- cells; assay: Immunofluorescence foci, RPE1 p53-/- cells; type: cell-based, human
Procedure: Immunofluorescence microscopy […] For detection of micronuclei, cells were fixed in 250 mM HEPES pH 7.5, 0.1% Triton X-100, 4% PFA in PBS for 20 minutes at 4 °C. Coverslips were then incubated for 5 min in 1x PBS with three buffer changes followed by incubation with 0.5% Triton X-100/ PBS for 10 min at room temperature. Coverslips were then incubated for 5 minutes in 1x PBS with three buffer changes. For EdU detection coverslips were transferred to a humidified chamber and incubated in EdU click it reaction buffer containing Alexafluor 488 azide for 1 h at room temperature followed by three 5 min washes in 1x PBS. Coverslips were then incubated in 5% FBS/PBS for 1 h followed by overnight incubation at 4 °C with primary antibody diluted in 5% FBS/PBS. Coverslips were then washed 3 × 5 min in 1x PBS followed by 1 h incubation at room temperature in 5% FBS/PBS containing secondary antibodies. Coverslips were incubated a further three times for 5 min in 1x PBS. Coverslips were then mounted on superfrost microscopy slides using Vectashield mounting medium with DAPI (Vector laboratories, […]). […] Cells were fixed in […] for 15 min at room temperature, followed by 3 × 5 min washes in 1xPBS. Coverslips were then incubated in 0.5% Triton-X/PBS for 10 min at room temperature, followed by a further 3 × 5 min 1xPBS washes. Coverslips were then incubated in blocking buffer (2% BSA, 0.05% Tween-20) for 1 h at room temperature, followed by incubation in respective primary antibodies overnight at 4 °C. Coverslips were then washed 3x for 5 min in 1x PBS followed by incubation for 1 h at room temperature in blocking buffer containing secondary antibodies. Coverslips were then washed 3x for 5 min in 1x PBS and mounted with Vectashield PLUS antifade mounting medium with DAPI (Vector laboratories, […]). Images were acquired using a Zeiss Axio Observer Z1 MarianasTM Microscope attached with a CSU-SoRa spinning disk unit using either a Photometrics Kinetix sCMOS camera built by Intelligent Imaging Innovations (3i) or a Zeiss Axio Observer Z1 MarianasTM Microscope attached with a CSUX1 spinning disk unit and Hamamatsu Flash 4 CMOS camera built by Intelligent Imaging Innovations (3i) or using an Opera Phenix Plus high content imaging system (Revvity). In each case 405, 488 and 640 laser lines were used in addition to DAPI, GFP/FITC, iRFP/CY5 emission filters. Quantification was carried out using FIJI (ImageJ, RRID:SCR_003070) software, CellProfiler (Broad Institute), Harmony (Revvity) or using […] Microsystems). Images of mitotic cells were analysed in 3D with maximum Z projections used for representative images in the manuscript to assist with visualisation.For interphase cells 2D images were analysed.

[5] = system: TOPBP1 BRCT 7-8; assay: Fluorescence polarisation, TOPBP1 BRCT 7-8; type: binding, human; conditions: peptide 100 nM, pH 7.5
Procedure: (§3) In vitro fluorescence polarisation
(§4) Fluorescein-labelled peptides corresponding to amino acids 1253-1267 or 1470-1483 of SLX4 incorporating pT1260 or pT1476 respectively, were incubated at a concentration of 100 nM at room temperature with increasing concentrations of TOPBP1 WT or mutant BRCT module variants[26] in 25 mM HEPES pH 7.5, 150 mM NaCl, 1 mM EDTA, 0.25 mM TCEP, 0.002% (v/v) Tween 20 in a black 96-well polypropylene plate. Additional experiments performed with dephosphorylated peptide were achieved though incubation with Lambda phosphatase supplemented with 1 mM MnCl2 to remove the phosphorylation on the peptide. Fluorescence polarisation was measured in a CLARIOstar multimode microplate reader. Binding curves were calculated assuming a single binding site with non-specific binding component, using Graphpad Prism10.2.3 (GraphPad Prism, RRID: SCR_002798). Binding affinities are presented as calculated values alongside the 95% CI values. The presented graphs represent data plotted with the non-specific binding component subtracted.

[6] = target: T1, TOPBP1 BRCT 0-1-2 WT (Homo sapiens, UniProt Q92547); assay: Fluorescence polarisation, TOPBP1 BRCT0-1-2 WT; type: binding; conditions: GST-tagged TOPBP1 fragment, peptide 100 nM, pH 7.5
T1 construct: transformed with pGEX-6P-1 TOPBP1(BRCT0-2 1-290) WT and K155E, K250E and K155E/K250E mutant variants; GST (N); made in house; host or cells: E. coli BL21(DE3)
Procedure: E.coli BL21(DE3) cells were transformed with pGEX-6P-1 TOPBP1(BRCT0-2 1-290) WT and K155E, K250E and K155E/K250E mutant variants for protein expression. Cell pellets were resuspended in lysis buffer containing 25 mM HEPES pH 7.5, 200 mM NaCl and 0.5 mM TCEP supplemented with 50U Turbo DNase, disrupted by sonication, and the resulting lysate clarified by centrifugation at 36,000 x g for 60 min at 4 °C. The supernatant was applied to a 5 ml HiTrap GST column, then washed with buffer containing 50 mM HEPES pH 7.5, 1000 mM NaCl, 0.25 mM TCEP, before the retained protein was eluted by application of the lysis buffer supplemented with 20 mM glutathione. […]
as §3
Fluorescein-labelled peptides corresponding to amino acids 1253-1267 or 1470-1483 of SLX4 incorporating pT1260 or pT1476 respectively, were incubated at a concentration of 100 nM at room temperature with increasing concentrations of TOPBP1 WT or mutant BRCT module variants[26] in 25 mM HEPES pH 7.5, 150 mM NaCl, 1 mM EDTA, 0.25 mM TCEP, 0.002% (v/v) Tween 20 in a black 96-well polypropylene plate. […] Fluorescence polarisation was measured in a CLARIOstar multimode microplate reader. Binding curves were calculated assuming a single binding site with non-specific binding component, using Graphpad Prism10.2.3 (GraphPad Prism, RRID: SCR_002798). […]

[7] = system: TOPBP1 BRCT 4-5; assay: Fluorescence polarisation, TOPBP1 BRCT 4-5; type: binding, human; conditions: peptide 100 nM, pH 7.5
Procedure: as §3, §4

T1 sequence (Q92547 1-290): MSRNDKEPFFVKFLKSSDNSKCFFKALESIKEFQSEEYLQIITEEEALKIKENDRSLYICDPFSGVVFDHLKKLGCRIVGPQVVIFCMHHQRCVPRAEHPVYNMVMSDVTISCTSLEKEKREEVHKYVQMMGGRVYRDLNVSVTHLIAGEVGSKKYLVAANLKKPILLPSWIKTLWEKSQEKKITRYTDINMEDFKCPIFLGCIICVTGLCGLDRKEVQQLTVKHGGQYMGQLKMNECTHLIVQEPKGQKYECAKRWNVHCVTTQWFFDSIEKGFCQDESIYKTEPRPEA

What does the source list for `O=C(O)Cc1c[nH]c2ccccc12` [IAA, Indole-3-acetic acid]?
MUS81 foci formation in prometaphase after acute TOPBP1 degradation ([1]; 500 µM IAA, 2 h, 40 ng/ml nocodazole, three independent experiments): near total abolishment of MUS81 foci formation in prometaphase; anaphase abnormalities after acute TOPBP1 degradation ([1]; IAA-induced degradation of TOPBP1 in G2/M, release into mitosis): marked increase in anaphase abnormalities

`Cc1cccc(N(C)C(=O)[C@@H]2[C@H](O)CCN2c2nc(C)cc(C(F)(F)F)c2C#N)c1` [Polθi] was tested. Which “micronuclei formation, WT cells” value [2] did it give?
The value was “increase in micronuclei formation”.

What about the “proliferation, DLD1 BRCA2-/- cells depleted of SLX4” value [3] of the same compound?
Its value is “broadly similar loss of proliferative capacity compared to the single depletion of CIP2A alone”.

For `C[C@@]1(CO)[C@H](O)CC[C@@]2(C)[C@H]1CC[C@H]1C[C@@H]3C[C@@]12CC[C@]3(O)CO` [aphidicolin], which “CIP2A–γH2AX colocalising foci in mitosis” value ([4]; 400 nM aphidicolin 18 h, nocodazole 60 ng/ml 2 h, RPE1 p53-/- FRT/TR WT, three experiments) is on record?
Its value is “striking increase in CIP2A–γH2AX colocalising foci in mitosis”.

And the “RAD9 TOPBP1 colocalising foci” value ([4]; 400 nM aphidicolin 18 h, nocodazole 60 ng/ml 2 h, RPE1 p53-/- FRT/TR, two experiments (peer review file Fig. R1B))?
The value was “increase in response to aphidicolin treatment”.

And the “WT SLX4 recruitment to prometaphase chromatin, colocalised with CIP2A” value ([4]; 400 nM aphidicolin 18 h, nocodazole 60 ng/ml 2 h, RPE1 p53-/- SLX4-/- + eGFP-SLX4 WT, three independent experiments)?
Its value is “recruited to prometaphase chromatin in response to replicative stress induced by aphidicolin and colocalised with CIP2A”.

And the “colocalisation between CIP2A and FANCD2 foci on mitotic chromatin” value ([4]; 400 nM aphidicolin 18 h, nocodazole 60 ng/ml 2 h, RPE1 p53-/- WT, three experiments)?
The value was “detected colocalisation between CIP2A and FANCD2 foci on mitotic chromatin”.

And the “TOPBP1, SLX4, and MUS81 foci during interphase” value ([4]; RPE1 cells treated with aphidicolin)?
The value was “elevated formation of TOPBP1, SLX4, and MUS81 foci during interphase”.

And the “mitotic colocalisation of SLX4, MUS81 or ERCC1 with TOPBP1 in prometaphase” value ([4]; RPE1 cells, aphidicolin)?
Its value is “elevated mitotic colocalisation of SLX4, MUS81 or ERCC1 with TOPBP1 in prometaphase”.

What about the “colocalisation between γH2AX and MUS81” value ([4]; RPE1 p53-/- cells treated with aphidicolin) of the same compound?
Its value is “The same observation was made for colocalisation between γH2AX and MUS81”.

And the “colocalising γH2AX and SLX4 foci” value ([4]; aphidicolin treated RPE1 p53-/- cells)?
The value was “significant increase in colocalising γH2AX and SLX4 foci”.

And the “MDC1 foci formation in mitosis” value ([4]; aphidicolin-treated RPE1 cells compared to control)?
Its value is “elevated MDC1 foci formation in mitosis”.

With “‘Flu’-GYGSPGLLDT(pT)PIRGSCT [SLX4 pT1476, Fluorescein-labelled peptide corresponding to amino acids 1470-1483 of SLX4 incorporating pT1476]” as the compound, how does the “interaction with TOPBP1 BRCTs 7-8” value [5] read?
The value was “no interaction was detected”.

And the “interaction with TOPBP1 BRCTs 0-1-2” value [6]?
Its value is “did not bind”.

What about the “interaction with TOPBP1 BRCTs 4-5” value [7] of the same compound?
Its value is “no interaction was detected”.
